Test results: ChEMBL document CHEMBL3044763, “Inhibitory Activities of Rhodanine Derivatives on Plant Growth” (Biosci Biotechnol Biochem, 1996)

Tests used:
[1] = Toxicity in Mus musculus ddY (mouse) assessed as mortality at 225 mg/kg, ip after 6 days; type: organism-based; parameters: dose 225 mg/kg, route intraperitoneal; settings: in vivo
[2] = Toxicity in Mus musculus ddY (mouse) assessed as mortality at 225 mg/kg, ip after 3 days; type: organism-based; parameters: dose 225 mg/kg, route intraperitoneal; settings: in vivo
[3] = Toxicity in Mus musculus ddY (mouse) assessed as mortality at 225 mg/kg, ip after 1 day; type: organism-based; parameters: dose 225 mg/kg, route intraperitoneal; settings: in vivo
[4] = Toxicity in Mus musculus ddY (mouse) assessed as mortality at 325 mg/kg, ip after 5 days; type: organism-based; parameters: dose 325 mg/kg, route intraperitoneal; settings: in vivo
[5] = system: Brassica rapa subsp. oleifera; assay: Growth inhibition of Brassica rapa subsp. oleifera assessed as total chlorophyll level at 3 x 10^-4 M after 7 days; type: functional; parameters: scale not given: the % may be the effect or the level left
[6] = Toxicity in Mus musculus ddY (mouse) assessed as mortality at 325 mg/kg, ip after 6 days; type: organism-based; parameters: dose 325 mg/kg, route intraperitoneal; settings: in vivo
[7] = system: Brassica rapa subsp. oleifera; assay: Growth inhibition of Brassica rapa subsp. oleifera assessed as chlorophyll a level at 3 x 10^-4 M after 7 days; type: functional; parameters: scale not given: the % may be the effect or the level left
[8] = Toxicity in Mus musculus ddY (mouse) assessed as mortality at 275 mg/kg, ip after 7 days; type: organism-based; parameters: dose 275 mg/kg, route intraperitoneal; settings: in vivo
[9] = system: Brassica rapa subsp. oleifera; assay: Growth inhibition of Brassica rapa subsp. oleifera assessed as chlorophyll b level at 3 x 10^-5 M after 7 days; type: functional; parameters: scale not given: the % may be the effect or the level left
[10] = system: Brassica rapa subsp. oleifera; assay: Growth inhibition of Brassica rapa subsp. oleifera assessed as root growth at 5 x 10^-5 M after 7 days; type: functional
[11] = system: Brassica rapa subsp. oleifera; assay: Growth inhibition of Brassica rapa subsp. oleifera assessed as chlorophyll a level at 1 x 10^-4 M after 7 days; type: functional; parameters: scale not given: the % may be the effect or the level left
[12] = Toxicity in Mus musculus ddY (mouse) assessed as mortality at 300 mg/kg, ip after 1 day; type: organism-based; parameters: dose 300 mg/kg, route intraperitoneal; settings: in vivo
[13] = Toxicity in ip dosed Mus musculus ddY (mouse) assessed as mortality after 1 to 7 days; type: organism-based; settings: in vivo
[14] = Toxicity in Mus musculus ddY (mouse) assessed as mortality at 300 mg/kg, ip after 5 days; type: organism-based; parameters: dose 300 mg/kg, route intraperitoneal; settings: in vivo
[15] = system: Brassica rapa subsp. oleifera; assay: Growth inhibition of Brassica rapa subsp. oleifera assessed as root growth at 3 x 10^-5 M after 7 days; type: functional
[16] = Toxicity in Mus musculus ddY (mouse) assessed as mortality at 200 mg/kg, ip after 4 days; type: organism-based; parameters: dose 200 mg/kg, route intraperitoneal; settings: in vivo
[17] = Toxicity in Mus musculus ddY (mouse) assessed as mortality at 200 mg/kg, ip after 2 days; type: organism-based; parameters: dose 200 mg/kg, route intraperitoneal; settings: in vivo
[18] = Toxicity in Mus musculus ddY (mouse) assessed as mortality at 300 mg/kg, ip after 7 days; type: organism-based; parameters: dose 300 mg/kg, route intraperitoneal; settings: in vivo
[19] = Toxicity in Mus musculus ddY (mouse) assessed as mortality at 250 mg/kg, ip after 5 days; type: organism-based; parameters: dose 250 mg/kg, route intraperitoneal; settings: in vivo
[20] = Toxicity in Mus musculus ddY (mouse) assessed as mortality at 225 mg/kg, ip after 5 days; type: organism-based; parameters: dose 225 mg/kg, route intraperitoneal; settings: in vivo
[21] = Toxicity in Mus musculus ddY (mouse) assessed as mortality at 225 mg/kg, ip after 7 days; type: organism-based; parameters: dose 225 mg/kg, route intraperitoneal; settings: in vivo
[22] = Toxicity in Mus musculus ddY (mouse) assessed as mortality at 325 mg/kg, ip after 4 days; type: organism-based; parameters: dose 325 mg/kg, route intraperitoneal; settings: in vivo
[23] = Toxicity in Mus musculus ddY (mouse) assessed as mortality at 200 mg/kg, ip after 6 days; type: organism-based; parameters: dose 200 mg/kg, route intraperitoneal; settings: in vivo
[24] = Toxicity in Mus musculus ddY (mouse) assessed as mortality at 300 mg/kg, ip after 6 days; type: organism-based; parameters: dose 300 mg/kg, route intraperitoneal; settings: in vivo
[25] = system: Brassica rapa subsp. oleifera; assay: Growth inhibition of Brassica rapa subsp. oleifera assessed as total chlorophyll level at 1 x 10^-4 M after 7 days; type: functional; parameters: scale not given: the % may be the effect or the level left
[26] = Toxicity in Mus musculus ddY (mouse) assessed as mortality at 325 mg/kg, ip after 7 days; type: organism-based; parameters: dose 325 mg/kg, route intraperitoneal; settings: in vivo
[27] = Toxicity in Mus musculus ddY (mouse) assessed as mortality at 325 mg/kg, ip after 2 days; type: organism-based; parameters: dose 325 mg/kg, route intraperitoneal; settings: in vivo
[28] = Toxicity in Mus musculus ddY (mouse) assessed as mortality at 300 mg/kg, ip after 2 days; type: organism-based; parameters: dose 300 mg/kg, route intraperitoneal; settings: in vivo
[29] = Toxicity in Mus musculus ddY (mouse) assessed as mortality at 275 mg/kg, ip after 3 days; type: organism-based; parameters: dose 275 mg/kg, route intraperitoneal; settings: in vivo
[30] = Toxicity in Mus musculus ddY (mouse) assessed as mortality at 250 mg/kg, ip after 6 days; type: organism-based; parameters: dose 250 mg/kg, route intraperitoneal; settings: in vivo
[31] = Toxicity in Mus musculus ddY (mouse) assessed as mortality at 325 mg/kg, ip after 3 days; type: organism-based; parameters: dose 325 mg/kg, route intraperitoneal; settings: in vivo
[32] = Toxicity in Mus musculus ddY (mouse) assessed as mortality at 275 mg/kg, ip after 4 days; type: organism-based; parameters: dose 275 mg/kg, route intraperitoneal; settings: in vivo
[33] = Toxicity in Mus musculus ddY (mouse) assessed as mortality at 200 mg/kg, ip after 1 day; type: organism-based; parameters: dose 200 mg/kg, route intraperitoneal; settings: in vivo
[34] = Toxicity in Mus musculus ddY (mouse) assessed as mortality at 225 mg/kg, ip after 2 days; type: organism-based; parameters: dose 225 mg/kg, route intraperitoneal; settings: in vivo
[35] = Toxicity in Mus musculus ddY (mouse) assessed as mortality at 200 mg/kg, ip after 5 days; type: organism-based; parameters: dose 200 mg/kg, route intraperitoneal; settings: in vivo
[36] = system: Brassica rapa subsp. oleifera; assay: Growth inhibition of Brassica rapa subsp. oleifera assessed as chlorophyll b level at 3 x 10^-4 M after 7 days; type: functional; parameters: scale not given: the % may be the effect or the level left
[37] = system: Brassica rapa subsp. oleifera; assay: Growth inhibition of Brassica rapa subsp. oleifera assessed as root growth at 3 x 10^-4 M after 7 days; type: functional
[38] = Toxicity in Mus musculus ddY (mouse) assessed as mortality at 250 mg/kg, ip after 4 days; type: organism-based; parameters: dose 250 mg/kg, route intraperitoneal; settings: in vivo
[39] = Toxicity in Mus musculus ddY (mouse) assessed as mortality at 225 mg/kg, ip after 4 days; type: organism-based; parameters: dose 225 mg/kg, route intraperitoneal; settings: in vivo
[40] = system: Brassica rapa subsp. oleifera; assay: Growth inhibition of Brassica rapa subsp. oleifera assessed as chlorophyll a level at 3 x 10^-5 M after 7 days; type: functional; parameters: scale not given: the % may be the effect or the level left
[41] = system: Brassica rapa subsp. oleifera; assay: Growth inhibition of Brassica rapa subsp. oleifera assessed as chlorophyll b level at 5 x 10^-5 M after 7 days; type: functional; parameters: scale not given: the % may be the effect or the level left
[42] = Toxicity in Mus musculus ddY (mouse) assessed as mortality at 325 mg/kg, ip after 1 day; type: organism-based; parameters: dose 325 mg/kg, route intraperitoneal; settings: in vivo
[43] = system: Brassica rapa subsp. oleifera; assay: Growth inhibition of Brassica rapa subsp. oleifera assessed as total chlorophyll level at 5 x 10^-5 M after 7 days; type: functional; parameters: scale not given: the % may be the effect or the level left
[44] = Toxicity in Mus musculus ddY (mouse) assessed as mortality at 200 mg/kg, ip after 3 days; type: organism-based; parameters: dose 200 mg/kg, route intraperitoneal; settings: in vivo
[45] = Toxicity in Mus musculus ddY (mouse) assessed as mortality at 275 mg/kg, ip after 6 days; type: organism-based; parameters: dose 275 mg/kg, route intraperitoneal; settings: in vivo
[46] = Toxicity in Mus musculus ddY (mouse) assessed as mortality at 275 mg/kg, ip after 1 day; type: organism-based; parameters: dose 275 mg/kg, route intraperitoneal; settings: in vivo
[47] = Toxicity in Mus musculus ddY (mouse) assessed as mortality at 250 mg/kg, ip after 1 day; type: organism-based; parameters: dose 250 mg/kg, route intraperitoneal; settings: in vivo
[48] = Toxicity in Mus musculus ddY (mouse) assessed as mortality at 250 mg/kg, ip after 2 days; type: organism-based; parameters: dose 250 mg/kg, route intraperitoneal; settings: in vivo
[49] = system: Brassica rapa subsp. oleifera; assay: Growth inhibition of Brassica rapa subsp. oleifera assessed as chlorophyll b level at 1 x 10^-4 M after 7 days; type: functional; parameters: scale not given: the % may be the effect or the level left
[50] = Toxicity in Mus musculus ddY (mouse) assessed as mortality at 275 mg/kg, ip after 5 days; type: organism-based; parameters: dose 275 mg/kg, route intraperitoneal; settings: in vivo
[51] = system: Brassica rapa subsp. oleifera; assay: Growth inhibition of Brassica rapa subsp. oleifera assessed as total chlorophyll level at 3 x 10^-5 M after 7 days; type: functional; parameters: scale not given: the % may be the effect or the level left
[52] = Toxicity in Mus musculus ddY (mouse) assessed as mortality at 275 mg/kg, ip after 2 days; type: organism-based; parameters: dose 275 mg/kg, route intraperitoneal; settings: in vivo
[53] = system: Brassica rapa subsp. oleifera; assay: Growth inhibition of Brassica rapa subsp. oleifera assessed as root growth at 1 x 10^-4 M after 7 days; type: functional
[54] = Toxicity in Mus musculus ddY (mouse) assessed as mortality at 250 mg/kg, ip after 3 days; type: organism-based; parameters: dose 250 mg/kg, route intraperitoneal; settings: in vivo
[55] = Toxicity in Mus musculus ddY (mouse) assessed as mortality at 250 mg/kg, ip after 7 days; type: organism-based; parameters: dose 250 mg/kg, route intraperitoneal; settings: in vivo
[56] = system: Brassica rapa subsp. oleifera; assay: Growth inhibition of Brassica rapa subsp. oleifera assessed as chlorophyll a level at 5 x 10^-5 M after 7 days; type: functional; parameters: scale not given: the % may be the effect or the level left
[57] = Toxicity in Mus musculus ddY (mouse) assessed as mortality at 300 mg/kg, ip after 3 days; type: organism-based; parameters: dose 300 mg/kg, route intraperitoneal; settings: in vivo
[58] = Toxicity in Mus musculus ddY (mouse) assessed as mortality at 300 mg/kg, ip after 4 days; type: organism-based; parameters: dose 300 mg/kg, route intraperitoneal; settings: in vivo
[59] = Toxicity in Mus musculus ddY (mouse) assessed as mortality at 200 mg/kg, ip after 7 days; type: organism-based; parameters: dose 200 mg/kg, route intraperitoneal; settings: in vivo

CN1C(=O)CSC1=S [3-METHYL-RHODANINE]
mortality at 144 h [1]: 20%
mortality at 72 h [2]: 20%
mortality at 24 h [3]: 20%
mortality at 120 h [4]: 100%
Activity [5]: 14.29%
mortality at 144 h [6]: 100%
Activity [7]: 10.77%
mortality at 168 h [8]: 80%
Activity [9]: 4.67%
Root length [10]: 53.9 mm
Activity [11]: 15.61%
mortality at 24 h [12]: 40%
LD50 [13]: 255 mg/kg
mortality at 120 h [14]: 80%
Root length [15]: 56.2 mm
mortality at 96 h [16]: 0%
mortality at 48 h [17]: 0%
mortality at 168 h [18]: 80%
mortality at 120 h [19]: 40%
mortality at 120 h [20]: 20%
mortality at 168 h [21]: 20%
mortality at 96 h [22]: 100%
mortality at 144 h [23]: 0%
mortality at 144 h [24]: 80%
Activity [25]: 20.44%
mortality at 168 h [26]: 100%
mortality at 48 h [27]: 60%
mortality at 48 h [28]: 80%
mortality at 72 h [29]: 80%
mortality at 144 h [30]: 40%
mortality at 72 h [31]: 100%
mortality at 96 h [32]: 80%
mortality at 24 h [33]: 0%
mortality at 48 h [34]: 20%
mortality at 120 h [35]: 0%
Activity [36]: 3.53%
Activity [37]: 37.5 mm
mortality at 96 h [38]: 40%
mortality at 96 h [39]: 20%
Activity [40]: 15.09%
Activity [41]: 4.44%
mortality at 24 h [42]: 60%
Activity [43]: 18.62%
mortality at 72 h [44]: 0%
mortality at 144 h [45]: 80%
mortality at 24 h [46]: 20%
mortality at 24 h [47]: 20%
mortality at 48 h [48]: 20%
Activity [49]: 4.85%
mortality at 120 h [50]: 80%
Activity [51]: 19.75%
mortality at 48 h [52]: 80%
Activity [53]: 52.7 mm
mortality at 72 h [54]: 40%
mortality at 168 h [55]: 40%
Activity [56]: 14.2%
mortality at 72 h [57]: 80%
mortality at 96 h [58]: 80%
mortality at 168 h [59]: 0%
